Measurements: patent US20080085494A1, “Dental Compositions Containing Oxirane Monomers” (priority 2004, published 2008)

What was measured:
Assay type in all cases: cell-based
Conditions in all cases: results to date
strain TA100 = assay: Ames mutagenicity evaluation, strain TA100
Experimental: (§1) Ames mutagenicity evaluations of Compounds A-D were performed by the School of Pharmacy, University of Missouri at Kansas City (UMKC). Results to date have shown Compounds A, C, and D to be negative in strains TA100 and TA97A.

strain TA97A = assay: Ames mutagenicity evaluation, strain TA97A
Experimental: as §1

strain TA1535 = assay: Ames mutagenicity evaluation, strain TA1535
strain TA98 = assay: Ames mutagenicity evaluation, strain TA98
strain TA102 = assay: Ames mutagenicity evaluation, strain TA102

Compound	Ames mutagenicity (strain TA100)	Ames mutagenicity (strain TA97A)	Ames mutagenicity (strain TA1535)	Ames mutagenicity (strain TA98)	Ames mutagenicity (strain TA102)
c1ccc(OCCCCCCCCCCOc2ccccc2CC2CO2)c(CC2CO2)c1 (centres unmarked) [Compound A, 1,10-Bis[2-(2,3-epoxypropyl)phenoxy]decane]	negative	negative	–	–	–
c1ccc(OCCCOc2ccccc2CC2CO2)c(CC2CO2)c1 (centres unmarked) [Compound B, 1,3-Bis[2-(2,3-epoxypropyl)phenoxy]propane]	negative	marginally positive	negative	negative	negative
c1ccc(OCCCCCOc2ccccc2CC2CO2)c(CC2CO2)c1 (centres unmarked) [Compound C, 1,5-Bis[2-(2,3-epoxypropyl)phenoxy]pentane]	negative	negative	–	–	–
c1ccc(OCCCCCCOc2ccccc2CC2CO2)c(CC2CO2)c1 (centres unmarked) [Compound D, 1,6-Bis[2-(2,3-epoxypropyl)phenoxy]hexane]	negative	negative	–	–	–
